Structures are written as SMILES.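 Cultured in 96-well plates, cells were exposed to test compound for 48 hours across five concentrations. GI50: concentration for 50% inhibition of growth. TGI marks complete inhibition of growth.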 Bounds are passed on as bounds.

Our source for the GI50 and TGI values is PubChem BioAssay (NCI).

Among the test systems are ACHN renal; HOP-62 NSCLC; HS 578T breast; MCF7 breast; MOLT-4 leukemia; RXF 393 renal; SNB-75 CNS; T-47D breast.
Common to all, as to assay: NCI-60 cell line screen, 48 h

For `C[C@H]1[C@@H](OCC(CO[C@H]2O[C@@H]3O[C@@]4(C)CC[C@H]5[C@H](C)CC[C@@H]([C@H]2C)[C@@]35OO4)=NOCC(=O)O)OC2O[C@@]3(C)CC[C@H]4[C@H](C)CC[C@@H]1[C@@]24OO3` (stereo partly specified), the GI50 in the assay with ACHN renal is 0.188 µM; in the assay on HOP-62 NSCLC, 0.229 µM; in the assay with HS 578T breast, 0.719 µM; in the assay on MCF7 breast, 0.212 µM; with MOLT-4 leukemia, less than 0.01 µM; in the assay with RXF 393 renal it was 0.0821 µM. Moreover, the GI50 in the assay on SNB-75 CNS was 0.698 µM; in the assay with T-47D breast, less than 0.01 µM. Also, the TGI was found to be 14.5 µM in the assay with ACHN renal; 21.7 µM with HOP-62 NSCLC; 22.4 µM in the assay with HS 578T breast; 17.6 µM in the assay with MCF7 breast; 8.61 µM in the assay with MOLT-4 leukemia; 15.8 µM in the assay on RXF 393 renal. The TGI in the assay with SNB-75 CNS is 15.4 µM; in the assay on T-47D breast, 0.331 µM.

Regarding `C[Se]C(=O)CC1=C2C=C(F)C=CC2/C(=C\c2ccc(S(C)=O)cc2)C1C` (stereo unspecified), the GI50 in the assay with ACHN renal is 0.154 µM; in the assay with HOP-62 NSCLC it was less than 0.01 µM; with HS 578T breast it was 0.0886 µM; with MCF7 breast, 0.152 µM; in the assay with MOLT-4 leukemia it was 0.392 µM; in the assay on RXF 393 renal, 0.0289 µM. Further, the values for the GI50 with SNB-75 CNS and in the assay with T-47D breast were less than 0.01 µM and 2.94 µM, respectively. The TGI was 3.07 µM in the assay with ACHN renal; 0.331 µM with HOP-62 NSCLC; 2.36 µM in the assay with HS 578T breast; 10.4 µM in the assay with MCF7 breast; greater than 100 µM with MOLT-4 leukemia; 0.8 µM in the assay on RXF 393 renal. Moreover, the TGI in the assay on SNB-75 CNS was less than 0.036 µM; with T-47D breast it was greater than 34 µM.

In the case of `N#Cc1nc(-c2ccccc2)oc1S(=O)(=O)N1CCOCC1`, the GI50 in the assay on ACHN renal was 1.76 µM; in the assay on HOP-62 NSCLC it was 34.7 µM; in the assay with HS 578T breast it was 16.3 µM; in the assay with MCF7 breast it was 2.74 µM; in the assay with MOLT-4 leukemia it was 2.01 µM; in the assay on RXF 393 renal, 1.68 µM. Moreover, the GI50 was 11.2 µM in the assay on SNB-75 CNS and 1.78 µM with T-47D breast. Besides, the TGI in the assay with ACHN renal is 3.15 µM; with HOP-62 NSCLC, greater than 100 µM; in the assay with HS 578T breast, 50 µM; in the assay on MCF7 breast it was 13.1 µM; in the assay on MOLT-4 leukemia it was 5.08 µM; in the assay with RXF 393 renal, 3.08 µM. The TGI worked out at 23.7 µM in the assay with SNB-75 CNS and 3.84 µM in the assay on T-47D breast.

Take `CCSC1=CC(=O)c2ccccc2C1=O`: the GI50 in the assay with ACHN renal was 1.27 µM; in the assay on HOP-62 NSCLC it was 15.3 µM; with HS 578T breast, 13.8 µM; with MCF7 breast, 4.12 µM; in the assay with MOLT-4 leukemia, 0.744 µM; with RXF 393 renal, 2.09 µM. Also, the GI50 in the assay on SNB-75 CNS is 14.8 µM; in the assay on T-47D breast, 0.318 µM. Further, the TGI in the assay with ACHN renal was 2.65 µM; in the assay with HOP-62 NSCLC, 28.7 µM; in the assay with HS 578T breast it was greater than 69.3 µM; in the assay on MCF7 breast it was 15.1 µM; with MOLT-4 leukemia, 2.39 µM; in the assay on RXF 393 renal, 4.54 µM. Further, the TGI was determined as 29.7 µM with SNB-75 CNS and 0.959 µM in the assay with T-47D breast.

Regarding `COC(=O)CCC1=C(C)c2cc3[n-]c(cc4nc(cc5[n-]c(cc1n2)c(CCC(=O)OC)c5C)C=C4C)cc3C.[Cd+2]`, the GI50 in the assay with ACHN renal is 16.2 µM; in the assay on HOP-62 NSCLC, 25.4 µM; in the assay with HS 578T breast, 5.73 µM; in the assay on MCF7 breast, 2.66 µM; with MOLT-4 leukemia it was 5.08 µM; in the assay with RXF 393 renal it was 2.88 µM. In addition, the GI50 is 6.62 µM with SNB-75 CNS and 2.47 µM with T-47D breast. Further, the TGI was 38.8 µM with ACHN renal; 76.2 µM in the assay with HOP-62 NSCLC; greater than 100 µM in the assay with HS 578T breast; 11.9 µM in the assay with MCF7 breast; greater than 63.6 µM in the assay with MOLT-4 leukemia; 10.9 µM in the assay with RXF 393 renal. For the same compound, the TGI was determined as 33.8 µM with SNB-75 CNS and 6.95 µM in the assay with T-47D breast.

Consider `C[C@@H]1CC[C@@]2(OC1)O[C@H]1C[C@H]3[C@@H]4CC=C5C[C@@H](O[C@@H]6O[C@H](CO)[C@@H](O[C@@H]7O[C@@H](CO)[C@H](O)[C@H]7O)[C@H](O)[C@H]6O[C@@H]6O[C@@H](C)[C@H](O)[C@@H](O)[C@H]6O)CC[C@]5(C)[C@H]4CC[C@]3(C)[C@H]1[C@@H]2C`, for which the TGI is 2.12 µM in the assay with ACHN renal; 2.4 µM with HOP-62 NSCLC; 2.49 µM with HS 578T breast; 3.3 µM in the assay on MCF7 breast; 2.26 µM in the assay with MOLT-4 leukemia; 1.58 µM with RXF 393 renal. Besides, the TGI is 2.46 µM with SNB-75 CNS and 2.73 µM in the assay on T-47D breast. Besides, the GI50 in the assay on HOP-62 NSCLC was 1.09 µM; with MCF7 breast, 1.8 µM; in the assay on RXF 393 renal, 0.388 µM; in the assay with SNB-75 CNS it was 1.18 µM; in the assay with T-47D breast, 1.39 µM.

On to `CC(=O)OC1CCC2(C)C(=CC(C3C=C4CC(OC(C)=O)CCC4(C)C4=C3C3CC5OC6(CCC(C)CO6)C(C)C5C3(C)CC4)C3=C2CCC2(C)C3CC3OC4(CCC(C)CO4)C(C)C32)C1` (stereo unspecified), for which the TGI amounted to 29.2 µM in the assay on ACHN renal; 32.5 µM in the assay on HOP-62 NSCLC; 17 µM in the assay on HS 578T breast; 21.9 µM in the assay with MCF7 breast; 4.7 µM with MOLT-4 leukemia; 31.5 µM in the assay with RXF 393 renal. The TGI in the assay with SNB-75 CNS was 29.9 µM; in the assay with T-47D breast, 42.7 µM.

With `O=Cc1coc2ccccc2c1=O`, the TGI was 45.2 µM in the assay on ACHN renal; 43.8 µM in the assay with HOP-62 NSCLC; 53.4 µM in the assay on HS 578T breast; 45.7 µM in the assay with MCF7 breast; 96.1 µM in the assay with MOLT-4 leukemia; 40.2 µM in the assay on RXF 393 renal. Further, the values for the TGI with SNB-75 CNS and with T-47D breast were 0.0768 µM and greater than 100 µM, respectively.

For the compound `O=C1/C(=C/c2cccs2)CCC/C1=C\c1cccs1`, the GI50 with ACHN renal is 57 µM; in the assay on HOP-62 NSCLC, 21.9 µM; in the assay on HS 578T breast it was 29.2 µM; with MCF7 breast, 0.529 µM; in the assay with MOLT-4 leukemia it was greater than 100 µM; in the assay on RXF 393 renal, 26.4 µM. The GI50 in the assay on SNB-75 CNS is 16.9 µM; in the assay with T-47D breast, 2.13 µM. The TGI in the assay on ACHN renal is greater than 100 µM; with HOP-62 NSCLC, 49.2 µM; with HS 578T breast it was greater than 100 µM; in the assay with MCF7 breast, greater than 100 µM; with MOLT-4 leukemia it was greater than 100 µM; with RXF 393 renal, greater than 100 µM. Further, the TGI in the assay on SNB-75 CNS was 81.4 µM; in the assay with T-47D breast it was greater than 72.8 µM.

Regarding `COc1cc(C2C(C#N)=C(N)OC3=C2C(=O)c2ccccc2C3=O)cc(OC)c1OC` (stereo unspecified), the GI50 in the assay on ACHN renal is 0.571 µM; with HOP-62 NSCLC it was 0.961 µM; in the assay with HS 578T breast, 0.382 µM; in the assay on MCF7 breast, 0.422 µM; in the assay with MOLT-4 leukemia, 4.06 µM; in the assay on RXF 393 renal, 0.517 µM. The values for the GI50 with SNB-75 CNS and in the assay on T-47D breast were 0.293 µM and 3.72 µM, respectively. Further, the TGI stood at 16.6 µM with ACHN renal; 17.7 µM in the assay with HOP-62 NSCLC; 49.3 µM in the assay on HS 578T breast; 16.1 µM in the assay on MCF7 breast; 24.4 µM in the assay on MOLT-4 leukemia; 16.3 µM in the assay with RXF 393 renal. In addition, the results for the TGI in the assay with SNB-75 CNS and in the assay on T-47D breast were 25.1 µM and 20.4 µM, respectively.
